Reference: patent US20260183274A1, “PDK1 REGULATORY COMPOUND AND COMPOSITION CONTAINING THE SAME” (PROVIBIO CO., LTD., priority 2024, published 2026)

Tests used:
[1] = tested on: T cells isolated from mouse spleens; assay: T cell proliferation inhibition (CFSE flow cytometry, anti-CD3/anti-CD28 stimulation); type: cell-based; details: mouse spleen T cells, 3 days; for inhibition at 0.01 µM / inhibition at 0.1 µM / inhibition at 1 µM / inhibition at 10 µM / inhibition at 30 µM / inhibition at 50 µM: Mus musculus, T-cell, 72 h, read-out: Proliferation inhibition rate (%); for inhibition at 50 µM: compound 50 μM
Method in brief: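 Proliferation inhibition (%) came from flow cytometry of CFSE dilution after 3 days' culture at 37 °C with compound (10 nM, 100 nM, 1, 10, 30, 50 μM; triplicate wells). Cells were magnetically purified T cells from C57BL/6 mouse spleens, 2×10^5 per well, stimulated with 0.5 μg/mL each anti-CD3 and anti-CD28.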

[2] = tested on: Human B Lymphocyte cell line, SU-DHL-8; assay: Relative cell viability CCK-8, SU-DHL-8; type: cell-based; details: for viability at 1 µM / viability at 10 µM / viability at 30 µM / viability at 50 µM: Homo sapiens, SU-DHL-8, 48 h, 48 hours, untreated (DMSO) = 100%; for viability at 1 µM: read-out: Relative cell viability (%), SU-DHL-8, 1 μM; for viability at 10 µM: read-out: Relative cell viability (%), SU-DHL-8, 10 μM; for viability at 30 µM: read-out: Relative cell viability (%), SU-DHL-8, 30 μM; for viability at 50 µM: read-out: Relative cell viability (%), SU-DHL-8, 50 μM; for Relative cell viability (%), SU-DHL-8: human, 48 h
Protocol: Human-derived B lymphoma cell line SU-DHL-8 (Cat. #CRL-2961) purchased from ATCC was cultured in RPMI-1640 medium containing 10% FBS, 100 U/mL penicillin, and 100 μg/mL streptomycin.
The cell culture medium was then harvested, centrifuged at 1,300 rpm for 5 minutes, and the supernatant was removed. The cells were resuspended in the same medium and dispensed into a 96-well plate (Costar 96-well cell culture plate, Corning) at 90 μL per well, resulting in the conditions specified in Table 5.
Then, 10 μL of CCK-8 was added to each well, and the plates were incubated again at 37° C. in a 5% CO2 incubator for 4 hours.
In other words, when the survival rate of untreated cells (DMSO) is set at 100%, the relative cell survival rate in each group treated with the drug at different concentrations is indicated.

## Nc1ncccc1C(=O)NCCCCCCCCCCCCN1CCSCC1 [Compound 4, 2-Amino-N-(12-thio-morpholin-4-yl-dodecyl)-nicotinamide]
[1]; compound 10 nM
  inhibition at 0.01 µM: 2.7%
[1]; compound 100 nM
  inhibition at 0.1 µM: 100%
[1]; compound 1 μM
  inhibition at 1 µM: 100%
[1]; compound 10 μM
  inhibition at 10 µM: 100%
[1]; compound 30 μM
  inhibition at 30 µM: 100%
[1]
  inhibition at 50 µM: 100%
[2]
  viability at 1 µM: 7.58%
  viability at 10 µM: 5.49%
  viability at 30 µM: 4.68%
  viability at 50 µM: 4.45%

## CC(C)CN1CCN(CCCCCCCCCCCCC(=O)Nc2nc(N)c3[nH]cnc3n2)CC1 [Compound 6, 12-[4-(2-methylpropyl)piperazin-1-yl]dodecyl-N-(6-aminopurine-2-yl) carboxamide]
[1]; compound 10 nM
  inhibition at 0.01 µM: -18.5%
[1]; compound 100 nM
  inhibition at 0.1 µM: 100%
[1]; compound 1 μM
  inhibition at 1 µM: 100%
[1]; compound 10 μM
  inhibition at 10 µM: 100%
[1]; compound 30 μM
  inhibition at 30 µM: 100%
[1]
  inhibition at 50 µM: 100%
[2]
  viability at 1 µM: 7.83%
  viability at 10 µM: 6.39%
  viability at 30 µM: 4.66%
  viability at 50 µM: 3.94%

## COC(=O)CN1CCN(CCCCCCCCCCCCC(=O)Nc2nc(N)c3[nH]cnc3n2)CC1 [Compound 7, 12-[4-(2-methoxy-2-oxoethyl)piperazin-1-yl]dodecyl-N-(6-aminopurine-2-yl) carboxamide]
[1]; compound 10 nM
  inhibition at 0.01 µM: 5.14%
[1]; compound 100 nM
  inhibition at 0.1 µM: 100%
[1]; compound 1 μM
  inhibition at 1 µM: 100%
[1]; compound 10 μM
  inhibition at 10 µM: 100%
[1]; compound 30 μM
  inhibition at 30 µM: 100%
[1]
  inhibition at 50 µM: 100%
[2]
  viability at 1 µM: 5.17%
  viability at 10 µM: 4.16%
  viability at 30 µM: 3.48%
  viability at 50 µM: 3.17%

## Nc1nc(NC(=O)CCCCCCCCCCCCN2CCNCC2)nc2nc[nH]c12 [Compound 8, 12-(piperazin-1-yl)dodecyl-N-(6-aminopurine-2-yl) carboxamide]
[1]; compound 10 nM
  inhibition at 0.01 µM: 4.55%
[1]; compound 100 nM
  inhibition at 0.1 µM: 32.5%
[1]; compound 1 μM
  inhibition at 1 µM: 100%
[1]; compound 10 μM
  inhibition at 10 µM: 100%
[1]; compound 30 μM
  inhibition at 30 µM: 100%
[1]
  inhibition at 50 µM: 100%
[2]
  viability at 1 µM: 10.8%
  viability at 10 µM: 6.49%
  viability at 30 µM: 5.07%
  viability at 50 µM: 4.49%

## Nc1nc(NC(=O)CCCCCCCCCCCCN2CCC(O)CC2)nc2nc[nH]c12 [Compound 9, 12-(4-hydroxypiperidin-1-yl)dodecyl-N-(6-aminopurine-2-yl) carboxamide]
[1]; compound 1 μM
  inhibition at 1 µM: 100%
[1]; compound 10 μM
  inhibition at 10 µM: 100%
[1]; compound 30 μM
  inhibition at 30 µM: 100%
[1]
  inhibition at 50 µM: 100%
[1]; compound 10 nM, listed as GO83, 0.01 µM
  Proliferation inhibition rate (%): 38.33%
[2]
  viability at 1 µM: 5.32%
  viability at 10 µM: 4.19%
  viability at 30 µM: 3.36%
  viability at 50 µM: 3.14%

## CN1CCN(C(=O)OC(C)(C)C)CC1CCCCCCCCNC(=O)c1cccnc1N (centres unmarked) [Compound 12, tert-Butyl 3-(8-(2-aminonicotinamido)octyl)-4-methylpiperazine-1-carboxylate]
[2]
  viability at 1 µM: 7.6%
  viability at 10 µM: 3.79%
  viability at 30 µM: 1.64%
  viability at 50 µM: 1.13%

## Nc1ncccc1C(=O)NCCCCCCCCCCCCN1CCCCC1 [Compound 18, 2-amino-N-(12-(piperidin-1-yl)dodecyl)nicotinamide]
[1]; compound 10 nM
  inhibition at 0.01 µM: 1.87%
[1]; compound 100 nM
  inhibition at 0.1 µM: 76.1%
[1]; compound 1 μM
  inhibition at 1 µM: 100%
[1]; compound 10 μM
  inhibition at 10 µM: 100%
[1]; compound 30 μM
  inhibition at 30 µM: 100%
[1]
  inhibition at 50 µM: 100%
[2]
  viability at 1 µM: 5.28%
  viability at 10 µM: 4.5%
  viability at 30 µM: 4.09%
  viability at 50 µM: 3.44%

## CN(C)C1CCN(CCCCCCCCCCCCNC(=O)c2cccnc2N)C1 (centres unmarked) [Compound 19, 2-Amino-N-(12-(3-(dimethylamino)pyrrolidin-1-yl)dodecyl)nicotinamide]
[1]; compound 10 nM
  inhibition at 0.01 µM: -14.4%
[1]; compound 100 nM
  inhibition at 0.1 µM: 100%
[1]; compound 1 μM
  inhibition at 1 µM: 100%
[1]; compound 10 μM
  inhibition at 10 µM: 100%
[1]; compound 30 μM
  inhibition at 30 µM: 100%
[1]
  inhibition at 50 µM: 100%
[2]
  viability at 1 µM: 8.51%
  viability at 10 µM: 7.51%
  viability at 30 µM: 5.98%
  viability at 50 µM: 5.08%

## Nc1ncccc1C(=O)NCCCCCCCCCCF [Compound 68, 2-Amino-N-(10-fluoro-decyl)-nicotinamide]
[2]
  viability at 1 µM: 16.1%
  viability at 10 µM: 15.3%
[2]; 30 µM
  Relative cell viability (%), SU-DHL-8: −2.90%
[2]; 50 µM
  Relative cell viability (%), SU-DHL-8: −5.64%

## Nc1ncccc1C(=O)NCCCCCCCCCCCF [Compound 70, 2-Amino-N-(11-fluoro-undecyl)-nicotinamide]
[2]
  viability at 1 µM: 5.01%
  viability at 10 µM: 4.94%
  viability at 30 µM: 1.45%
[2]; 50 µM
  Relative cell viability (%), SU-DHL-8: −0.57%

## Cl.Nc1ncccc1C(=O)NCCCCCCCCCCCF [Compound 71, 3-(11-fluoro-undecylcarbamoyl)-pyridin-2-yl-ammonium chloride]
[2]
  viability at 50 µM: 0.75%
[2]; 1 µM
  Relative cell viability (%), SU-DHL-8: 5.57%
[2]; 10 µM
  Relative cell viability (%), SU-DHL-8: 4.05%
[2]; 30 µM
  Relative cell viability (%), SU-DHL-8: 2.04%

## CN1CCN(CCCCCCCCCCCCNC(=O)c2cccnc2O)CC1 [Compound 210, 2-Hydroxy-N-(12-(4-methylpiperazin-1-yl)dodecyl)nicotinamide]
[1]; compound 10 nM
  inhibition at 0.01 µM: -4.34%
[1]; compound 100 nM
  inhibition at 0.1 µM: -3.18%
[1]; compound 1 μM
  inhibition at 1 µM: 2.75%
[1]; compound 10 μM
  inhibition at 10 µM: 42.8%
[1]; compound 30 μM
  inhibition at 30 µM: 100%
[1]
  inhibition at 50 µM: 100%

## CN1CCN(CCCCCCCCCCCCNC(=O)c2cnccc2N)CC1 [Compound 211, 4-Amino-N-(12-(4-methylpiperazin-1-yl)dodecyl)nicotinamide]
[1]
  inhibition at 50 µM: 100%
[1]; compound 10 nM, listed as KP-63, 0.01 µM
  Proliferation inhibition rate (%): −2.17%
[1]; compound 100 nM, listed as KP-63, 0.1 µM
  Proliferation inhibition rate (%): −0.87%
[1]; compound 1 μM, listed as KP-63, 1 µM
  Proliferation inhibition rate (%): 9.70%
[1]; compound 10 μM, listed as KP-63, 10 µM
  Proliferation inhibition rate (%): 90.01%

## CN1CCN(CCCCCCCCCCCCNC(=O)c2cnccc2N)CC1 [Compound 212, 4-Amino-N-(12-(4-methylpiperazin-1-yl)dodecyl)nicotinamide]
[1]; compound 10 nM, listed as KP-64, 0.01 µM
  Proliferation inhibition rate (%): −2.89%
[1]; compound 100 nM, listed as KP-64, 0.1 µM
  Proliferation inhibition rate (%): −3.91%
[1]; compound 1 μM, listed as KP-64, 1 µM
  Proliferation inhibition rate (%): −4.34%
[1]; compound 10 μM, listed as KP-64, 10 µM
  Proliferation inhibition rate (%): 20.55%
[1]; compound 30 μM, listed as KP-64, 30 µM
  Proliferation inhibition rate (%): 71.78%

## CN1CCN(CCCCCCCCCCCCNC(=O)c2ccc(C(F)(F)F)cc2N)CC1 [Compound 213, 2-Amino-N-(12-(4-methylpiperazin-1-yl)dodecyl)-4-(trifluoromethyl)benzamide]
[1]; compound 10 nM
  inhibition at 0.01 µM: -0.14%
[1]; compound 100 nM
  inhibition at 0.1 µM: 6.37%
[1]; compound 1 μM
  inhibition at 1 µM: 8.54%
[1]; compound 10 μM
  inhibition at 10 µM: 100%
[1]; compound 30 μM
  inhibition at 30 µM: 100%
[1]
  inhibition at 50 µM: 100%

## CN1CCN(CCCCCCCCCCCCNC(=O)c2ccccc2Oc2ccccc2)CC1 [Compound 214, N-(12-(4-methylpiperazin-1-yl)dodecyl)-2-phenoxybenzamide]
[1]; compound 10 nM
  inhibition at 0.01 µM: 2.32%
[1]; compound 100 nM
  inhibition at 0.1 µM: 12.2%
[1]; compound 1 μM
  inhibition at 1 µM: 17.4%
[1]; compound 10 μM
  inhibition at 10 µM: 100%
[1]; compound 30 μM
  inhibition at 30 µM: 100%
[1]
  inhibition at 50 µM: 100%

## CCOc1cc(C(C)(C)C)ccc1C(=O)NCCCCCCCCCCCCN1CCN(C)CC1 [Compound 216, 4-(tert-butyl)-2-ethoxy-N-(12-(4-methylpiperazin-1-yl)dodecyl)benzamide]
[1]; compound 10 nM
  inhibition at 0.01 µM: 2.03%
[1]; compound 100 nM
  inhibition at 0.1 µM: 2.32%
[1]; compound 1 μM
  inhibition at 1 µM: 13%
[1]; compound 10 μM
  inhibition at 10 µM: 100%
[1]; compound 30 μM
  inhibition at 30 µM: 100%
[1]
  inhibition at 50 µM: 100%

## COc1cccc(OC)c1C(=O)NCCCCCCCCCCCCN1CCN(C)CC1 [Compound 218, 2,6-Dimethoxy-N-(12-(4-methylpiperazin-1-yl)dodecyl)benzamide]
[1]; compound 10 nM
  inhibition at 0.01 µM: 1.31%
[1]; compound 100 nM
  inhibition at 0.1 µM: 2.74%
[1]; compound 1 μM
  inhibition at 1 µM: 12.4%
[1]; compound 10 μM
  inhibition at 10 µM: 100%
[1]; compound 30 μM
  inhibition at 30 µM: 100%
[1]
  inhibition at 50 µM: 100%

## Cc1c(Cl)cccc1C(=O)NCCCCCCCCCCCCN1CCN(C)CC1 [Compound 219, 3-Chloro-2-methyl-N-(12-(4-methylpiperazin-1-yl)dodecyl)benzamide]
[1]; compound 10 nM
  inhibition at 0.01 µM: -5.37%
[1]; compound 100 nM
  inhibition at 0.1 µM: 2.18%
[1]; compound 1 μM
  inhibition at 1 µM: 3.48%
[1]; compound 10 μM
  inhibition at 10 µM: 66.5%
[1]; compound 30 μM
  inhibition at 30 µM: 100%
[1]
  inhibition at 50 µM: 100%
